Assay results taken from US11844845B2, “Cell penetrating peptide, conjugate comprising same, and composition comprising conjugate” (GEMVAX & KAEL CO., LTD., priority 2012, dated 2023).

Test system: HeLa cell
Assay: Cell penetration of pep(CPP)-FITC conjugate in HeLa cell line, flow cytometry (FACS)
Format: cell-based, Homo sapiens
Settings: HeLa cells, 20 uM FITC-fused peptide, 37° C. for an hour, control = FITC only
Method: Homo sapiens cervix adenocarcinoma cell line as HeLa cell lines were purchased from ATCC (American Type Cell Culture). The cells were cultured in MEM supplemented with 10% fetal bovine serum (Invitrogen, USA), Earle's salts, non-essential amino acids, sodium pyruvate and 100 μg/ml penicillin and 10 units/ml streptomycin and cultured at 37° C., 5% CO2 incubator.
Flow cytometry and Confocal microscope analysis were performed to compare the between degree of cellular uptake of the cells were treated with SEQ ID NO: 2 to SEQ ID NO: 178, pep (CPP) and control.
The cell line was divided in a 6-well plate and cultured in a medium containing 10% fetal bovine serum (Invitrogen, USA), 100 μg/ml penicillin, 100 units/ml streptomycin at 37° C. 5% CO2 incubator for 12 hours. After washing the cell line with PBS, starvation was induced in a Minimum Essential Medium for an hour. 20 uM of each carrier peptide was treated and cultured at 37° C. for an hour. After repeating the step of washing the cells with PBS for three times, Trypsin-EDTA was treated form 10 mins at 37° C. to separate the carrier peptide on the outside of the cell. cells were collected with refrigerated PBS and centrifugation was performed to repeat the step of washing the cells for three times. After then, the cells were suspended in 0.5 ml of PBS containing 4% Paraformaldehyde and fluorescence of the cells was analyzed using FACS Calibur (Becton Dickinson). The cellular uptake aspect of control and various peptides combined with FITC was compared and analyzed by MFI (Mean Fluorescence Intensity).
Analysis results shown in FIGS. 2 to 29 are given in detail in Table 7 below.

EARPALLT (listed as Homo sapiens) [Pep-RIA-85]
cellular uptake, MFI (Mean Fluorescence Intensity): 10.1 ± 0.34

SRLRFI (listed as Homo sapiens) [Pep-RIA-166]
cellular uptake, MFI (Mean Fluorescence Intensity): 6.97 ± 0.53

EARPALLTSRLRFIPKPDGLRPIVN (listed as Homo sapiens) [Pep-RIA-72]
cellular uptake, MFI (Mean Fluorescence Intensity): 21.7 ± 1.21

RPALLTSRLRF (listed as Homo sapiens) [Pep-RIA-122]
cellular uptake, MFI (Mean Fluorescence Intensity): 23.8 ± 1.54

QHREARPALLTSRLRFIPKPDGLR (listed as Homo sapiens) [Pep-RIA-37]
cellular uptake, MFI (Mean Fluorescence Intensity): 16.73 ± 0.28

VRQHREARPALLTSRLRFIPK (listed as Homo sapiens) [Pep-RIA-5]
cellular uptake, MFI (Mean Fluorescence Intensity): 20.24 ± 0.34

ARPALLTSRLRFIP (listed as Homo sapiens) [Pep-RIA-104]
cellular uptake, MFI (Mean Fluorescence Intensity): 22.51 ± 0.96

RQHREARPALLISRLRFIPKPD (RQHREARPALLTSRLRFIPKPD; listed as Homo sapiens) [Pep-RIA-25]
cellular uptake, MFI (Mean Fluorescence Intensity): 17.41 ± 0.32

HREARPALLTSRLRFIPKP (listed as Homo sapiens) [Pep-RIA-16]
cellular uptake, MFI (Mean Fluorescence Intensity): 15.96 ± 2.37

ARPA (listed as Homo sapiens) [Pep-RIA-119]
cellular uptake, MFI (Mean Fluorescence Intensity): 11.19 ± 0.61

EARPALLTSRLRF (listed as Homo sapiens) [Pep-RIA-80]
cellular uptake, MFI (Mean Fluorescence Intensity): 14.7 ± 0.79

EVRQHREARPALLTSRLRFIPKPDGL (listed as Homo sapiens) [Pep-RIA-43]
cellular uptake, MFI (Mean Fluorescence Intensity): 15.34 ± 1.35

REARPALLTSRLRFIPKP (listed as Homo sapiens) [Pep-RIA-15]
cellular uptake, MFI (Mean Fluorescence Intensity): 16.32 ± 0.36

REARPALLTSRLRFIPKPDG (listed as Homo sapiens) [Pep-RIA-23]
cellular uptake, MFI (Mean Fluorescence Intensity): 16.57 ± 0.68

EARPALLTSR (listed as Homo sapiens) [Pep-RIA-83]
cellular uptake, MFI (Mean Fluorescence Intensity): 10.27 ± 0.25

HREARPALLTSRLRFIPKPDG (listed as Homo sapiens) [Pep-RIA-22]
cellular uptake, MFI (Mean Fluorescence Intensity): 14.42 ± 0.28

EARPALLTSRLR (listed as Homo sapiens) [Pep-RIA-81]
cellular uptake, MFI (Mean Fluorescence Intensity): 14.63 ± 0.22

HREARPALLTSRLRFIPKPD (listed as Homo sapiens) [Pep-RIA-17]
cellular uptake, MFI (Mean Fluorescence Intensity): 13.61 ± 0.22

REARPALLTSRLRFIPKPDGLRP (listed as Homo sapiens) [Pep-RIA-50]
cellular uptake, MFI (Mean Fluorescence Intensity): 15.47 ± 0.73

ELSEAEVRQHREARPALLTSRLRFIPK (listed as Homo sapiens) [Pep-RIA-11]
cellular uptake, MFI (Mean Fluorescence Intensity): 15.22 ± 0.23

ALLTSR (listed as Homo sapiens) [Pep-RIA-142]
cellular uptake, MFI (Mean Fluorescence Intensity): 13.23 ± 0.57

SRLRFIPK (listed as Homo sapiens) [Pep-RIA-98]
cellular uptake, MFI (Mean Fluorescence Intensity): 14.04 ± 1.55

VRQHREARPALLTSRLRFIPKPDGL (listed as Homo sapiens) [Pep-RIA-34]
cellular uptake, MFI (Mean Fluorescence Intensity): 16.37 ± 0.97

VRQHREARPALLTSRLRFIPKPDGLR (listed as Homo sapiens) [Pep-RIA-35]
cellular uptake, MFI (Mean Fluorescence Intensity): 13.22 ± 0.34

QLRELSEAEVRQHREARPALLTSRLRFIPK (listed as Homo sapiens) [Pep-RIA-14]
cellular uptake, MFI (Mean Fluorescence Intensity): 23.67 ± 1.22

ARPALLT (listed as Homo sapiens) [Pep-RIA-116]
cellular uptake, MFI (Mean Fluorescence Intensity): 11.32 ± 0.99

LLTSRLRFIP (listed as Homo sapiens) [Pep-RIA-146]
cellular uptake, MFI (Mean Fluorescence Intensity): 17.43 ± 0.49

VRQHREARPALLTSRLRFIPKPDGLRPI (listed as Homo sapiens) [Pep-RIA-59]
cellular uptake, MFI (Mean Fluorescence Intensity): 22.69 ± 0.66

EARPALLTSRLRFIPKP (listed as Homo sapiens) [Pep-RIA-64]
cellular uptake, MFI (Mean Fluorescence Intensity): 15.51 ± 0.58

RPALLTS (listed as Homo sapiens) [Pep-RIA-125]
cellular uptake, MFI (Mean Fluorescence Intensity): 11.07 ± 0.55

EARPALLTSRL (listed as Homo sapiens) [Pep-RIA-82]
cellular uptake, MFI (Mean Fluorescence Intensity): 10.12 ± 0.95

LTSRLR (listed as Homo sapiens) [Pep-RIA-156]
cellular uptake, MFI (Mean Fluorescence Intensity): 12.21 ± 0.24

EARPALLTSRLRFIPKPDGLRPIVNMDYV (listed as Homo sapiens) [Pep-RIA-76]
cellular uptake, MFI (Mean Fluorescence Intensity): 22.07 ± 0.64

ARPALLTSRLRFI (listed as Homo sapiens) [Pep-RIA-110]
cellular uptake, MFI (Mean Fluorescence Intensity): 11.89 ± 0.68

EARPAL (listed as Homo sapiens) [Pep-RIA-87]
cellular uptake, MFI (Mean Fluorescence Intensity): 9.6 ± 1.76

RQHREARPALLTSRLRFIPKP (listed as Homo sapiens) [Pep-RIA-24]
cellular uptake, MFI (Mean Fluorescence Intensity): 19.42 ± 0.72

AEVRQHREARPALLTSRLRFIPKPD (listed as Homo sapiens) [Pep-RIA-52]
cellular uptake, MFI (Mean Fluorescence Intensity): 15.49 ± 0.29

LRFIPK (listed as Homo sapiens) [Pep-RIA-100]
cellular uptake, MFI (Mean Fluorescence Intensity): 14.69 ± 1.48

EARPALLTSRLRFI (listed as Homo sapiens) [Pep-RIA-79]
cellular uptake, MFI (Mean Fluorescence Intensity): 10.73 ± 1.18

ARPALLTS (listed as Homo sapiens) [Pep-RIA-115]
cellular uptake, MFI (Mean Fluorescence Intensity): 12.13 ± 0.34

EARPALLTSRLRFIPKPDGLR (listed as Homo sapiens) [Pep-RIA-68]
cellular uptake, MFI (Mean Fluorescence Intensity): 14.94 ± 1.88

LLTSRLRFI (listed as Homo sapiens) [Pep-RIA-147]
cellular uptake, MFI (Mean Fluorescence Intensity): 14.93 ± 1.55

EVRQHREARPALLTSRLRFIPKPDG (listed as Homo sapiens) [Pep-RIA-42]
cellular uptake, MFI (Mean Fluorescence Intensity): 15.27 ± 1.65

HREARPALLTSRLRFIPKPDGLR (listed as Homo sapiens) [Pep-RIA-38]
cellular uptake, MFI (Mean Fluorescence Intensity): 18.02 ± 0.71

PALLTSRL (listed as Homo sapiens) [Pep-RIA-133]
cellular uptake, MFI (Mean Fluorescence Intensity): 12.95 ± 0.69

RQHREARPALLTSRLRFIPK (listed as Homo sapiens) [Pep-RIA-4]
cellular uptake, MFI (Mean Fluorescence Intensity): 27.25 ± 0.79

EARPALL (listed as Homo sapiens) [Pep-RIA-86]
cellular uptake, MFI (Mean Fluorescence Intensity): 9.95 ± 2.34

EARPALLTSRLRFIPKPDGLRPI (listed as Homo sapiens) [Pep-RIA-70]
cellular uptake, MFI (Mean Fluorescence Intensity): 16.32 ± 0.44

EVRQHREARPALLTSRLRFIPKPD (listed as Homo sapiens) [Pep-RIA-41]
cellular uptake, MFI (Mean Fluorescence Intensity): 13.58 ± 2.78

EARPALLTS (listed as Homo sapiens) [Pep-RIA-84]
cellular uptake, MFI (Mean Fluorescence Intensity): 10.32 ± 0.49

REARPALLTSRLRFIPKPDGL (listed as Homo sapiens) [Pep-RIA-30]
cellular uptake, MFI (Mean Fluorescence Intensity): 15.34 ± 0.55

EARPALLTSRLRFIPKPDGLRPIVNMDYVV (listed as Homo sapiens) [Pep-RIA-77]
cellular uptake, MFI (Mean Fluorescence Intensity): 87.67 ± 0.93

PAL (listed as Homo sapiens) [Pep-RIA-138]
cellular uptake, MFI (Mean Fluorescence Intensity): 10.8 ± 0.78

LSEAEVRQHREARPALLTSRLRFIPK (listed as Homo sapiens) [Pep-RIA-10]
cellular uptake, MFI (Mean Fluorescence Intensity): 14.64 ± 0.76

PALLTSRLRF (listed as Homo sapiens) [Pep-RIA-106]
cellular uptake, MFI (Mean Fluorescence Intensity): 18.41 ± 1.12

AEVRQHREARPALLTSRLRFIPK (listed as Homo sapiens) [Pep-RIA-7]
cellular uptake, MFI (Mean Fluorescence Intensity): 16.49 ± 1.35

ALL (listed as Homo sapiens) [Pep-RIA-145]
cellular uptake, MFI (Mean Fluorescence Intensity): 13.85 ± 0.38

LTSRLRFI (listed as Homo sapiens) [Pep-RIA-154]
cellular uptake, MFI (Mean Fluorescence Intensity): 12.21 ± 1.29

PALLTSRLRFIPK (listed as Homo sapiens) [Pep-RIA-93]
cellular uptake, MFI (Mean Fluorescence Intensity): 22.88 ± 1.82

VRQHREARPALLTSRLRFIPKPDG (listed as Homo sapiens) [Pep-RIA-33]
cellular uptake, MFI (Mean Fluorescence Intensity): 15.04 ± 0.68

RPALLTSRLR (listed as Homo sapiens) [Pep-RIA-123]
cellular uptake, MFI (Mean Fluorescence Intensity): 17.31 ± 0.68
